Laboratory results taken from the NIST ThermoML archive (doi:10.1021/acs.jced.7b00694).

Experiment: xn = mol fraction of the nth substance listed
Conditions: Gas, Buoyancy - hydrostatic balance with magnetic suspension - one sinker

[HH] [hydrogen] + N#N
Conditions | mass density [kg/m3]
240.08 K, 10002 kPa, x2 = 0.5001 | 72.937
240.08 K, 11003 kPa, x2 = 0.5001 | 79.831
240.08 K, 17004 kPa, x2 = 0.5001 | 118.935
240.08 K, 18010 kPa, x2 = 0.5001 | 125.09
240.08 K, 19066 kPa, x2 = 0.5001 | 131.423
240.09 K, 12008 kPa, x2 = 0.5001 | 86.648
240.09 K, 13002 kPa, x2 = 0.5001 | 93.298
240.09 K, 14003 kPa, x2 = 0.5001 | 99.881
240.09 K, 15003 kPa, x2 = 0.5001 | 106.346
240.09 K, 16007 kPa, x2 = 0.5001 | 112.717
250.02 K, 998 kPa, x2 = 0.95 | 12.909
250.02 K, 1998 kPa, x2 = 0.95 | 25.981
250.02 K, 2999 kPa, x2 = 0.95 | 39.211
250.02 K, 3999 kPa, x2 = 0.95 | 52.525
250.02 K, 4999 kPa, x2 = 0.95 | 65.908
250.02 K, 5999 kPa, x2 = 0.95 | 79.318
250.02 K, 6999 kPa, x2 = 0.95 | 92.739
250.02 K, 8001 kPa, x2 = 0.95 | 106.147
250.02 K, 9002 kPa, x2 = 0.95 | 119.485
250.02 K, 9998 kPa, x2 = 0.95 | 132.641
250.02 K, 11003 kPa, x2 = 0.95 | 145.769
250.02 K, 12002 kPa, x2 = 0.95 | 158.648
250.02 K, 13002 kPa, x2 = 0.95 | 171.33
250.02 K, 14006 kPa, x2 = 0.95 | 183.836
250.02 K, 15009 kPa, x2 = 0.95 | 196.059
250.02 K, 16008 kPa, x2 = 0.95 | 207.967
250.02 K, 17012 kPa, x2 = 0.95 | 219.644
250.02 K, 18015 kPa, x2 = 0.95 | 231.002
250.02 K, 19020 kPa, x2 = 0.95 | 242.075
250.02 K, 19863 kPa, x2 = 0.95 | 251.12
250.03 K, 999 kPa, x2 = 0.5001 | 7.213
250.03 K, 1999 kPa, x2 = 0.5001 | 14.386
250.03 K, 2988 kPa, x2 = 0.5001 | 21.436
250.03 K, 3998 kPa, x2 = 0.5001 | 28.596
250.03 K, 4998 kPa, x2 = 0.5001 | 35.626
250.04 K, 998 kPa, x2 = 0.9 | 12.26
250.04 K, 1998 kPa, x2 = 0.9 | 24.659
250.04 K, 2987 kPa, x2 = 0.9 | 37.024
250.04 K, 3998 kPa, x2 = 0.9 | 49.722
250.04 K, 4998 kPa, x2 = 0.9 | 62.325
250.04 K, 5999 kPa, x2 = 0.5001 | 42.6
250.04 K, 5999 kPa, x2 = 0.9 | 74.953
250.04 K, 6999 kPa, x2 = 0.5001 | 49.504
250.04 K, 6999 kPa, x2 = 0.9 | 87.557
250.04 K, 7999 kPa, x2 = 0.5001 | 56.336
250.04 K, 8000 kPa, x2 = 0.9 | 100.114
250.04 K, 8999 kPa, x2 = 0.5001 | 63.085
250.04 K, 9001 kPa, x2 = 0.9 | 112.6
250.04 K, 9995 kPa, x2 = 0.9 | 124.895
250.04 K, 9999 kPa, x2 = 0.5001 | 69.753
